Experimental data from PMC6514978, “Synthesis, Antibacterial Activities, Mode of Action and Acute Toxicity Studies of New Oxazolidinone-Fluoroquinolone Hybrids” (Molecules, 2019).
In brackets after ≈: the same amount, converted by molar mass.

Assays:
[1] = test system: S. aureus (46) clinical isolates; experiment: Susceptibility of clinical isolates (MIC); type: cell-based, Staphylococcus aureus; conditions: for MIC50 / MIC90 / MIC: Staphylococcus aureus, S. aureus, 46 clinical isolates; for MIC50: read-out: MIC50; for MIC90: read-out: MIC90; for MIC: read-out: MIC Range
Description: (§1) Susceptibility testing of oxazolidinone-fluoroquinolone hybrids against various bacteria was performed by the broth microdilution method as outlined by the Clinical and Laboratory Standards Institute (CLSI). Three types of media, including cation-adjusted Mueller Hinton broth, Haemophilus Test Medium and cation-adjusted Mueller Hinton broth that contained 3%–5% lysed horse blood, were used to culture the corresponding bacteria. […] A final inoculum of 5 × 10^5 CFU/mL was used and plates were read after incubation for 16–24 h at 35 °C. […] Standard quality control strains (ATCC) were included throughout. Each determination was repeated in triplicate.

[2] = test system: S. haemolyticus (32) clinical isolates; experiment: Susceptibility of clinical isolates (MIC); type: cell-based, Staphylococcus haemolyticus; conditions: for MIC50 / MIC90 / MIC: Staphylococcus haemolyticus, S. haemolyticus, 32 clinical isolates; for MIC50: read-out: MIC50; for MIC90: read-out: MIC90; for MIC: read-out: MIC Range
Description: as §1

[3] = test system: S. epidermidis (10) clinical isolates; experiment: Susceptibility of clinical isolates (MIC); type: cell-based, Staphylococcus epidermidis; conditions: for MIC50 / MIC90 / MIC: Staphylococcus epidermidis, S. epidermidis, 10 clinical isolates; for MIC50: read-out: MIC50; for MIC90: read-out: MIC90; for MIC: read-out: MIC Range
Description: as §1

[4] = test system: S. suis (9) clinical isolates; experiment: Susceptibility of clinical isolates (MIC); type: cell-based, Streptococcus suis; conditions: Streptococcus suis, S. suis, 9 clinical isolates; for MIC50: read-out: MIC50; for MIC90: read-out: MIC90; for MIC: read-out: MIC Range
Description: as §1

[5] = test system: S. pneumoniae (13) clinical isolates; experiment: Susceptibility of clinical isolates (MIC); type: cell-based, Streptococcus pneumoniae; conditions: for MIC50 / MIC90: Streptococcus pneumoniae; for MIC50: read-out: MIC50; for MIC90: read-out: MIC90
Description: as §1

[6] = test system: E. faecalis (72) clinical isolates; experiment: Susceptibility of clinical isolates (MIC); type: cell-based, Enterococcus faecalis; conditions: for MIC Range / MIC50 / MIC90: E. faecalis, 72 clinical isolates; for MIC50 / MIC90: Enterococcus faecalis
Description: as §1

[7] = test system: E. faecium (47) clinical isolates; experiment: Susceptibility of clinical isolates (MIC); type: cell-based, Enterococcus faecium; conditions: for MIC Range / MIC50 / MIC90: E. faecium, 47 clinical isolates; for MIC50 / MIC90: Enterococcus faecium; for MIC50: read-out: MIC50; for MIC90: read-out: MIC90
Description: as §1

[8] = test system: H. parasuis (34) clinical isolates; experiment: Susceptibility of clinical isolates (MIC); type: cell-based, Haemophilus parasuis; conditions: H. parasuis, 34 clinical isolates; for MIC50 / MIC90: Glaesserella parasuis; for MIC50: read-out: MIC50; for MIC90: read-out: MIC90
Description: as §1

MRSE = experiment: MIC against drug-resistant strain; type: cell-based, S. epidermidis; conditions: Staphylococcus epidermidis, read-out: MIC
Description: (§2) 6 standard strains and 3 clinical isolates were used to the preliminary evaluation of in vitro antibacterial activities of oxazolidinone-fluoroquinolone hybrids.
as §1

[9] = test system: LZD-resistant E. faecalis; experiment: microbe, parasite or virus in culture; type: cell-based; conditions: Enterococcus faecalis
Description: as §2, §1

CIP-resistant S. aureus = experiment: MIC against drug-resistant strain; type: cell-based; conditions: Staphylococcus aureus; S. aureus, CIP-resistant; read-out: MIC
Description: as §2, §1

[10] = test system: CIP-resistant S. haemolyticus; experiment: MIC against drug-resistant strain; type: cell-based; conditions: Staphylococcus haemolyticus; S. haemolyticus, CIP-resistant; read-out: MIC
Description: as §2, §1

[11] = test system: LZD and quinolone-resistant E. faecium; experiment: MIC against drug-resistant strain; type: cell-based; conditions: Enterococcus faecium; E. faecium, LZD and quinolone-resistant; read-out: MIC
Description: as §2, §1

MRSA = experiment: MIC against drug-resistant strain; type: cell-based; conditions: Staphylococcus aureus, read-out: MIC
Description: as §2, §1

[12] = test system: VAN and quinolone-resistant E. faecium; experiment: MIC against drug-resistant strain; type: cell-based; conditions: Enterococcus faecium; E. faecium, VAN and quinolone-resistant; read-out: MIC
Description: as §2, §1

[13] = test system: VAN and quinolone-resistant S. pneumoniae; experiment: MIC against drug-resistant strain; type: cell-based; conditions: Streptococcus pneumoniae; S. pneumoniae, VAN and quinolone-resistant; read-out: MIC
Description: as §2, §1

[14] = S. aureus clinical isolates, CLSI criteria
[15] = S. haemolyticus clinical isolates, CLSI criteria
[16] = S. epidermidis clinical isolates, CLSI criteria
[17] = S. pneumoniae clinical isolates, CLSI criteria
[18] = S. pneumoniae, 13 clinical isolates
[19] = E. faecium clinical isolates, CLSI criteria

For COc1c(N2CCNC(C)C2)c(F)cc2c(=O)c(C(=O)O)cn(C3CC3)c12 (centres unmarked) [GAFX, gatifloxacin], the “CLSI %R (resistant)” value [1, 14] was 42.4%, the “CLSI %S (susceptible)” value [1, 14] was 45.5% and the MIC50 [1] was 1 µg/mL (≈ 2.66 µM). The MIC90 [1] was 2 µg/mL (≈ 5.33 µM), the MIC [1] was 0.0625 to 2 µg/mL (≈ 0.166 to 5.33 µM) and the “CLSI %R (resistant)” value [2, 15] was 3.8%. For the same molecule, the “CLSI %S (susceptible)” value [2, 15] was 96.2%, the MIC50 [2] was 0.125 µg/mL (≈ 0.333 µM) and the MIC90 [2] was 0.25 µg/mL (≈ 0.666 µM). For the same molecule, the MIC [2] was 0.0625 to 2 µg/mL (≈ 0.166 to 5.33 µM), the “CLSI %R (resistant)” value [3, 16] was 50.0% and the “CLSI %S (susceptible)” value [3, 16] was 30.0%. It also gave an MIC50 [3] of 1 µg/mL (≈ 2.66 µM), an MIC90 [3] of 2 µg/mL (≈ 5.33 µM) and an MIC [3] of 0.125 to 2 µg/mL (≈ 0.333 to 5.33 µM). For the same molecule, the MIC50 [4] was ≤ 0.0625 µg/mL, the MIC90 [4] was 4 µg/mL (≈ 10.7 µM) and the MIC [4] was 0.0625 to 4 µg/mL (≈ 0.166 to 10.7 µM). The “CLSI %R (resistant)” value [5, 17] was 92.3%, the “CLSI %S (susceptible)” value [5, 17] was 7.7% and the “MIC Range” value [5, 18] was 4 to 32 µg/mL. The MIC50 [5, 18] was 4 µg/mL (≈ 10.7 µM), the MIC90 [5, 18] was 32 µg/mL (≈ 85.2 µM) and the “CLSI %S (susceptible)” value ([6]; E. faecalis clinical isolates, CLSI criteria) was 94.6/- %. The “MIC Range” value [6] was 0.125 to 2 µg/mL, the MIC50 [6] was 0.25 µg/mL (≈ 0.666 µM) and the MIC90 [6] was 0.5 µg/mL (≈ 1.33 µM). The “CLSI %R (resistant)” value [7, 19] was 13.8%, the “CLSI %S (susceptible)” value [7, 19] was 86.2% and the “MIC Range” value [7] was 0.25 to 8 µg/mL. The MIC50 [7] was 1 µg/mL (≈ 2.66 µM), the MIC90 [7] was 8 µg/mL (≈ 21.3 µM) and the MIC50 [8] was ≤ 0.0625 µg/mL. The MIC90 [8] was 1 µg/mL (≈ 2.66 µM), the “MIC Range” value [8] was ≤0.0625 to 1 µg/mL and the MIC (MRSE) was ≤ 0.0625 µg/mL. It also gave an MIC [9] of 0.5 µg/mL (≈ 1.33 µM), an MIC (CIP-resistant S. aureus) of 2 µg/mL (≈ 5.33 µM) and an MIC [10] of 2 µg/mL (≈ 5.33 µM). For the same molecule, the MIC [11] was 8 µg/mL (≈ 21.3 µM), the MIC (MRSA) was 0.125 µg/mL (≈ 0.333 µM) and the MIC [12] was 16 µg/mL (≈ 42.6 µM). For the same molecule, the MIC [13] was > 32 µg/mL.

In the case of CC1CCc2c(N3CCC(O)CC3)c(F)cc3c(=O)c(C(=O)O)cn1c23 (centres unmarked) [NDFX, nadifloxacin], the MIC50 [1] is reported as 0.5 µg/mL (≈ 1.39 µM), the MIC90 [1] is reported as 0.5 µg/mL (≈ 1.39 µM) and the MIC [1] is reported as 0.0625 to 2 µg/mL (≈ 0.173 to 5.55 µM). For the same molecule, the MIC50 [2] was ≤ 0.0625 µg/mL, the MIC90 [2] was 0.5 µg/mL (≈ 1.39 µM) and the MIC [2] was 0.0625 to 4 µg/mL (≈ 0.173 to 11.1 µM). It also gave an MIC50 [3] of 1 µg/mL (≈ 2.77 µM), an MIC90 [3] of 2 µg/mL (≈ 5.55 µM) and an MIC [3] of 0.0625 to 2 µg/mL (≈ 0.173 to 5.55 µM). The MIC50 [4] was ≤ 0.0625 µg/mL, the MIC90 [4] was 2 µg/mL (≈ 5.55 µM) and the MIC [4] was 0.0625 to 4 µg/mL (≈ 0.173 to 11.1 µM). For the same molecule, the MIC50 [5, 18] was 16 µg/mL (≈ 44.4 µM), the MIC90 [5, 18] was > 32 µg/mL and the “MIC Range” value [6] was 0.125 to 2 µg/mL. For the same molecule, the MIC50 [6] was 0.25 µg/mL (≈ 0.694 µM), the MIC90 [6] was 1 µg/mL (≈ 2.77 µM) and the “MIC Range” value [7] was 0.5 to 16 µg/mL. The MIC50 [7] was 2 µg/mL (≈ 5.55 µM), the MIC90 [7] was 8 µg/mL (≈ 22.2 µM) and the MIC50 [8] was ≤ 0.0625 µg/mL. The MIC90 [8] was 1 µg/mL (≈ 2.77 µM), the “MIC Range” value [8] was ≤0.0625 to 1 µg/mL and the MIC (MRSE) was 0.125 µg/mL (≈ 0.347 µM). For the same molecule, the MIC [9] was 1 µg/mL (≈ 2.77 µM), the MIC (CIP-resistant S. aureus) was 0.5 µg/mL (≈ 1.39 µM) and the MIC [10] was 4 µg/mL (≈ 11.1 µM). For the same molecule, the MIC [11] was 16 µg/mL (≈ 44.4 µM), the MIC (MRSA) was ≤ 0.0625 µg/mL and the MIC [12] was 32 µg/mL (≈ 88.8 µM). For the same molecule, the MIC [13] was > 32 µg/mL.
